Experimental data taken from US20090209525A1, “ENABLING METHODS TO IDENTIFY ALLOSTERIC MODULATORS OF RECEPTOR ACTIVITY” (priority 2006, published 2009).
Substitutions are numbered along the chain they refer to. Values joined by “and” are separate entries in the source; they are usually repeats but may differ in a detail not shown here. Equal values may be shown once. Read-outs that look alike come from different tables or passages of the source.

How the values were obtained:
[1] = molecular target: T1, rat M1 W101A receptor (Rattus norvegicus, UniProt P08482, W101A); assay: R-SAT functional assay, W101A mutant; format: cell-based; conditions: for increase in potency relative to wild-type: R-SAT; for Shift: EC50 W101A divided by EC50 wild-type; for Eff (%): maximum response, normalized; for EC50: read-out: pEC50 (converted)
T1 construct: expressed in transfected cells
T1 sequence (P08482 1-460 W101A): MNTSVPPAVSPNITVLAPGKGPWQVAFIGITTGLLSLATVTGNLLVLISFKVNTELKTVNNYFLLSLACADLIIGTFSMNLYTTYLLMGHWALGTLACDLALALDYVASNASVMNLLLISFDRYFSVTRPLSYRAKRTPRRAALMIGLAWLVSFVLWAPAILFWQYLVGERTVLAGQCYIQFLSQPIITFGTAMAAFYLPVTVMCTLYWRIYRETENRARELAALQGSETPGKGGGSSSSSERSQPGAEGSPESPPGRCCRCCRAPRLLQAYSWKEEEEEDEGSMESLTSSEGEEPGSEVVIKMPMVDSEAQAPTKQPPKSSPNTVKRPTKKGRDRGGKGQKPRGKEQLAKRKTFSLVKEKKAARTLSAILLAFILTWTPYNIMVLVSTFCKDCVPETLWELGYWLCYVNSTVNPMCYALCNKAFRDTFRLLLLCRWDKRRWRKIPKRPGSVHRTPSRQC
Description: Cells are co-transfected for 18 h with DMEM containing 0.08 micrograms/ml of an expression vector for the expression of the mutant receptor and 0.3 micrograms/ml pSI-Bgal (Promega, Madison Wis.), and 0.5% v/v Polyfect (Qiagen, Valencia Calif.), as recommended by the manufacturer. On day three, the medium is replaced with DMEM containing 1% PSG, 0.5% calf serum, 2% cyto-sf3 (Kemp Biotechnologies, Frederick, Md.), and varying concentrations of the compounds to be tested. Cells are grown in a humidified atmosphere with 5% ambient CO2 for 5 days. The media is removed from the plates, and beta-galactosidase activity is measured by the addition of o-nitrophenyl -d-galactopyranoside in phosphate-buffered saline with 5% Nonidet P-40. […] The following equation is fitted to the data using GraphPad Prism software (San Diego, Calif.):
NIH-3T3 cells were grown in 96-well tissue culture plates to 70 to 80% confluence in Dulbecco's modified essential media (DMEM) supplemented with 100 units/ml penicillin, 100 micrograms/ml streptomycin, 0.3 mg/ml L-glutamine (1% PSG, GIBCO) and 10% calf serum (Sigma-Aldrich). Cells were transfected for 18 h with DMEM containing 0.08 micrograms/ml receptor DNA and 0.3 micrograms/ml pSI-Bgal (Promega, Madison Wis.), 0.5% v/v Polyfect (Qiagen, Valencia Calif.). Medium was replaced with DMEM containing 1% PSG, 0.5% calf serum, 2% cyto-sf3 (Kemp Biotechnologies, Frederick, Md.), and varying concentrations of ligand. […] Cells were grown in a humidified atmosphere with 5% ambient CO2 for 5 days. Medium was removed from the plates, and beta-galactosidase activity was measured by the addition of o-nitrophenyl -d-galactopyranoside in phosphate-buffered saline with 5% Nonidet P-40.
Receptor Selection and Amplification (R-SAT™) Assays: R-SAT™ functional assays were carried out as follows. NIH-3T3 cells were grown in 96-well tissue culture plates to 70 to 80% confluence in Dulbecco's modified essential media (DMEM) supplemented with 100 units/ml penicillin, 100 micrograms/ml streptomycin, 0.3 mg/ml L-glutamine (1% PSG, GIBCO) and 10% calf serum (Sigma-Aldrich). Cells were transfected for 18 h with DMEM containing 0.08 micrograms/ml receptor DNA and 0.3 micrograms/ml pSI-Bgal (Promega, Madison Wis.), 0.5% v/v Polyfect (Qiagen, Valencia Calif.). The transfected cells were frozen away. Cells were thawed and added to 96 well plates with DMEM containing 1% PSG, 0.5% calf serum, 2% cyto-sf3 (Kemp Biotechnologies, Frederick, Md.), and varying concentrations of ligand.
In an effort to further characterize monoamine modulators, we used a panel of mutant muscarininc M1 receptors to analyze the activity and potency of orthosteric modulators and various allosteric modulators at those receptors.

[2] = molecular target: T1, rat M1 W101A receptor; assay: ^3H-NMS radioligand binding, W101A; conditions: for Shift: Ki W101A divided by Ki wild-type; for increase in binding affinity relative to wild-type: radioligand binding, W101A
Description: (§1) Briefly, cell homogenates are prepared from cells transiently or stably expressing wild type or mutant receptors. For transiently transfected cells, HEK cells are transfected with receptor of interest and cells harvested 48 hours post transfection. Cells expressing the receptor, stably or transiently, are harvested using phosphate buffered saline containing 5 mM EDTA, cells centrifuged at low speed and pellet re-suspended in binding buffer. Cell suspension is polytroned and centrifuged at 15,000×g. The pellet is resuspended in binding buffer and centrifugation repeated two more times. The washed cell homogenates are used for the competition binding assays. Competition binding assays are carried out in the presence of fixed amount of cell homogenate, fixed concentration of radioactively labeled orthosteric or allosteric ligand and varying concentrations of the cal under study using appropriate buffer. Incubations are carried out at room temperature for 2 hours. Incubations are terminated by filtration onto GF/B filters using Packard cell harvester followed by 3 washes with ice-cold buffer. Radioactivity retained on the filters is quantitated using Packard Top Count using Microscint 20 scintillation fluid. […] The membranes prepared above are incubated with a labeled ligand in 25 mM sodium phosphate, 5 mM magnesium chloride, 0.01% BSA two hours at room temperature. The binding reaction is stopped by rapid filtration onto GF/B filters. […] The pKd values (pKd=−log Kd) of the labeled ligand are calculated.
(§2) Radioligand binding assays were carried out in 25 mM sodium phosphate, 5 mM magnesium chloride, 0.01% BSA. Incubations were for two hours at room temperature, and reactions were stopped by rapid filtration onto GF/B filters.

[3] = molecular target: T2, rat M1 S109A receptor (Rattus norvegicus, UniProt P08482, S109A); assay: ^3H-NMS radioligand binding, S109A; conditions: for Shift: Ki S109A divided by Ki wild-type
T2 construct: expressed in transfected cells
T2 sequence (P08482 1-460 S109A): T1 sequence (P08482 1-460 W101A) with A101W, S109A
Description: as §1, §2

[4] = Table 4, M1 W101A, maximum response relative to xanomeline
[5] = Table 10, M1 W101A, maximum response relative to AC-42

CCCCC1CCN(CCCC(=O)c2ccccc2C)CC1 [AC-42, 4-n-butyl-1-[4-(2-methylphenyl)-4-oxo-1-butyl] piperidine hydrogen chloride] was tested, and the “increase in potency relative to wild-type” value ([1]; W101A) was 50 fold, the Shift ([1]; Table 3) was 0.02 and the “Eff (%)” value ([1]; Table 3, W101A) was 95 ± 10%. For the same compound, the EC50 ([1]; Table 3, W101A) was 0.00316 µM, the “% Eff” value [1, 4] was 97% and the EC50 ([1]; Table 4, M1 W101A) was 0.00794 µM. The “% Eff” value [1, 5] was 111%, the EC50 ([1]; Table 10, M1 W101A) was 0.00794 µM and the IC50 [2] was 0.0501 µM. For the same compound, the Shift [2] was 0.01, the “increase in binding affinity relative to wild-type” value [2] was 50 fold and the IC50 [3] was 2.51 µM. The Shift [3] was 0.5.
For CCCCC1CCN(CCCN2C(=O)COc3cc(F)ccc32)CC1 [AC-260584, 4-[3-(4-Butyl-piperidin-1-yl)-propyl]-7-fluoro-4H-benzo [1,4]oxazin-3-one], the “increase in potency relative to wild-type” value ([1]; W101A) was 33 fold and 30 fold, the Shift ([1]; Table 3) was 0.03 and the “Eff (%)” value ([1]; Table 3, W101A) was 100 ± 8%. The EC50 ([1]; Table 3, W101A) was 0.000398 µM, the “% Eff” value [1, 4] was 98% and the EC50 ([1]; Table 4, M1 W101A) was 0.0002 µM. The “% Eff” value [1, 5] was 140%, the EC50 ([1]; Table 10, M1 W101A) was 0.00316 µM and the IC50 [2] was 0.00316 µM. The Shift [2] was 0.003, the “increase in binding affinity relative to wild-type” value [2] was “over 100 fold” and the IC50 [3] was 1.58 µM. It also gave a Shift [3] of 1.
With Clc1ccc2c(c1)N=C(N1CCNCC1)c1ccccc1N2 [NDMC, 8-chloro-11-(1-piperazinyl)-5H-dibenzo [b,e] [1,4] diazepine] the Shift ([1]; Table 3) was 5, the “Eff (%)” value ([1]; Table 3, W101A) was 88 ± 12% and the EC50 ([1]; Table 3, W101A) was 0.2 µM. For the same compound, the “% Eff” value [1, 4] was 72%, the EC50 ([1]; Table 4, M1 W101A) was 0.0398 µM and the “% Eff” value [1, 5] was 93%. For the same compound, the EC50 ([1]; Table 10, M1 W101A) was 0.1 µM, the IC50 [2] was 0.126 µM and the Shift [2] was 1. The IC50 [3] was 0.631 µM and the Shift [3] was 4.
